From patent US20250195521A1 (Revolution Medicines, Inc., priority 2020, published 2025)
Where two headings read alike, the source gives them in different places.

Key:
[1] = tested on: Capan-1 cells (K-Ras G12V); assay: CellTiter-Glo cell viability, Capan-1; assay type: cell-based, human; details: read-out: Capan-1 Cell Viability IC50
Procedure, shortened: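 Viability read by luminescence on day 5 after direct compound addition to cells, following ~30 min room-temperature equilibration. Values expressed as percent of mean DMSO signal, curves fitted with a four-parameter logistic model.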

KRAS WT = KRAS WT (Homo sapiens (Human), UniProt P01116+P62937); assay: Ras-Raf disruption/FRET/MOA assay (BRAF RBD, Cyclophilin A); assay type: biochemical; details: read-out: KRAS WT FRET data IC50
Procedure, shortened: (§1)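 First, 25 μM Cyclophilin A, 12.5 nM His6-Ras-GMPPNP and 50 nM GST-BRAF RBD are mixed with diluted compound at pH 7.3. Next, 3 h at 25° C. Then 10 nM anti-His Eu-W1024 plus 50 nM anti-GST allophycocyanin for 1.5 h before TR-FRET reading.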

KRAS G13C = KRAS G13C (Homo sapiens (Human), UniProt P01116+P62937, G13C); assay: as above; assay type: biochemical; details: read-out: KRAS G13C FRET IC50
Procedure, shortened: as §1

KRAS G12C = KRAS G12C (Homo sapiens (Human), UniProt P01116+P62937, G12C); assay: as above; assay type: biochemical; details: read-out: KRAS G12C FRET IC50
Procedure, shortened: as §1

NRAS Q61R = NRAS Q61R (Homo sapiens (Human), UniProt P01111+P62937, Q61R); assay: as above; assay type: biochemical
Procedure, shortened: (§2)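 Measured: compound-facilitated Cyclophilin A:Ras complex blocking RAF RBD binding. Conditions: 12.5 nM Ras-GMPPNP, 50 nM BRAF RBD, 25 μM CypA, 3 h plus 1.5 h detection. Output: IC50 from TR-FRET ratio.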

KRAS G13D = KRAS G13D (Homo sapiens (Human), UniProt P01116+P62937, G13D); assay: as above; assay type: biochemical; details: read-out: KRAS G13D FRET data IC50
Procedure, shortened: as §1

KRAS G12V = KRAS G12V (Homo sapiens (Human), UniProt P01116+P62937, G12V); assay: as above; assay type: biochemical; details: read-out: KRAS G12V FRET IC50
Procedure, shortened: as §1

NRAS WT = NRAS WT (Homo sapiens (Human), UniProt P01111+P62937); assay: as above; assay type: biochemical
Procedure, shortened: as §2

NRAS Q61K = NRAS Q61K (Homo sapiens (Human), UniProt P01111+P62937, Q61K); assay: as above; assay type: biochemical
Procedure, shortened: as §2

KRAS Q61H = KRAS Q61H (Homo sapiens (Human), UniProt P01116+P62937, Q61H); assay: as above; assay type: biochemical
Procedure, shortened: as §1

KRAS G12D = KRAS G12D (Homo sapiens (Human), UniProt P01116+P62937, G12D); assay: as above; assay type: biochemical; details: read-out: KRAS G12D FRET IC50
Procedure, shortened: as §1

[2] = target: K-Ras G12C(GMP-PNP) binding to BRAF RBD (Homo sapiens (Human), UniProt P01116+P62937, G12C); assay: Disruption of BRAF RBD interaction with K-Ras (FRET / MOA assay), K-Ras G12C; assay type: biochemical
Procedure, shortened: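 TR-FRET readout: after 3 h compound incubation at 25 °C, anti-His Eu and anti-GST allophycocyanin (10 and 50 nM final) added for a further 1.5 h. Dilution series was 10-point, 3-fold, top 30 μM final. Ras–cyclophilin A ternary complex formation blocks the BRAF RBD interaction; IC50 derived from reduced FRET ratio relative to DMSO.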

[3] = Homo sapiens, CAPAN-1, 120 h, K-Ras G12V, 5-day treatment

Chain of K-Ras G12C(GMP-PNP) binding to BRAF RBD (P01116 other isoform, or with tags, fused parts or gaps G12C): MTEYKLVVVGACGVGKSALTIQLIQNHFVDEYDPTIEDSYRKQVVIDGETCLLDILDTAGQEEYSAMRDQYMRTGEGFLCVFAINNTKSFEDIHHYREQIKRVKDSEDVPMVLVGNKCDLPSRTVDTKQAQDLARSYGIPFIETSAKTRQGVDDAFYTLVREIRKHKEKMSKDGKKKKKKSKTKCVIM
Chain of K-Ras G12C(GMP-PNP) binding to BRAF RBD (P62937 whole entry): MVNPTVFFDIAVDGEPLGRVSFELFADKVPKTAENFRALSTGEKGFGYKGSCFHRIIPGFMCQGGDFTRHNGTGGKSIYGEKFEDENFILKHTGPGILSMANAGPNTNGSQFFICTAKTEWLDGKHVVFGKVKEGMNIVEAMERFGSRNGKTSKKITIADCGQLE
Chain of KRAS WT (P01116 other isoform, or with tags, fused parts or gaps): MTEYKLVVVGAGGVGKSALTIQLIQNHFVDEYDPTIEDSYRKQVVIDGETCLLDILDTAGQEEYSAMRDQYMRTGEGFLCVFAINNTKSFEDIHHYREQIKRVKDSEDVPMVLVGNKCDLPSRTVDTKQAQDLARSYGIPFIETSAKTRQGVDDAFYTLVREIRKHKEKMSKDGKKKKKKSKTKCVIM
Chain of KRAS WT (P62937 whole entry): as the sequence (P62937 whole entry) above
Chain of KRAS G13C (P01116 other isoform, or with tags, fused parts or gaps G13C): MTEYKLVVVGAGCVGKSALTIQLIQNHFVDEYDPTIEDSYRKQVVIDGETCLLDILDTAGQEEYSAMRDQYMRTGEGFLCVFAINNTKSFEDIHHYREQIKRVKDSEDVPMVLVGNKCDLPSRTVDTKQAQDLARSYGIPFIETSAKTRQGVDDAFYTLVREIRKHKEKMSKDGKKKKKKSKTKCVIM
Chain of KRAS G13C (P62937 whole entry): as the sequence (P62937 whole entry) above
Chain of KRAS Q61H (P01116 other isoform, or with tags, fused parts or gaps Q61H): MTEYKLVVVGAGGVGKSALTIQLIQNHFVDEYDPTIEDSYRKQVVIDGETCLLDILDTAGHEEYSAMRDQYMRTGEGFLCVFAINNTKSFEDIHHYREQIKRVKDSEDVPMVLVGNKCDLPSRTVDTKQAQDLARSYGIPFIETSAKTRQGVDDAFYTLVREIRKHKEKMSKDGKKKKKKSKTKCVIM
Chain of KRAS Q61H (P62937 whole entry): as the sequence (P62937 whole entry) above
Chain of KRAS G13D (P01116 other isoform, or with tags, fused parts or gaps G13D): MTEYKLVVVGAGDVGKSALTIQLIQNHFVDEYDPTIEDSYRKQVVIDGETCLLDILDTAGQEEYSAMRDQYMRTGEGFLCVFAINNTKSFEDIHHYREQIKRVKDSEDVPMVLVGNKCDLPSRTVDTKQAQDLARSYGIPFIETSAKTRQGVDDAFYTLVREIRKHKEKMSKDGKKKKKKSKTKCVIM
Chain of KRAS G13D (P62937 whole entry): as the sequence (P62937 whole entry) above
Chain of NRAS Q61R (P01111 whole entry Q61R): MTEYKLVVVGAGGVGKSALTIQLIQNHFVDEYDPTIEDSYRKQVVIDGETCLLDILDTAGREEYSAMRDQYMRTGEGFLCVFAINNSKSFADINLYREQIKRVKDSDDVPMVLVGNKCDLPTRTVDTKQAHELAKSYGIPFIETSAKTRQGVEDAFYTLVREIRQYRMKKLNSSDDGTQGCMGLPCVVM
Chain of NRAS Q61R (P62937 whole entry): as the sequence (P62937 whole entry) above
Chain of NRAS WT (P01111 whole entry): as the sequence (P01111 whole entry Q61R) above, with R61Q counted along it
Chain of NRAS WT (P62937 whole entry): as the sequence (P62937 whole entry) above
Chain of KRAS G12D (P01116 other isoform, or with tags, fused parts or gaps G12D): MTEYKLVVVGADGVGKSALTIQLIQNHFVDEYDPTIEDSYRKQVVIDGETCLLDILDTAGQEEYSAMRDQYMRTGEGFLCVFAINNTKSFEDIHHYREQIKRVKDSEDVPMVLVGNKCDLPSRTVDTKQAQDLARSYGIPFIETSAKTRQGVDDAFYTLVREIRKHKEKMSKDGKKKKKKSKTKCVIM
Chain of KRAS G12D (P62937 whole entry): as the sequence (P62937 whole entry) above
Chain of KRAS G12V (P01116 other isoform, or with tags, fused parts or gaps G12V): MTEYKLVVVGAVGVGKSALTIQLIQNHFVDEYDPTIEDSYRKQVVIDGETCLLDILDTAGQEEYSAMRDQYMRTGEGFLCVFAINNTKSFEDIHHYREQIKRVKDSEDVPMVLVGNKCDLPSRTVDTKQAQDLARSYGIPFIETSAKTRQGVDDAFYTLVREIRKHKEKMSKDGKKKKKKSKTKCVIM
Chain of KRAS G12V (P62937 whole entry): as the sequence (P62937 whole entry) above
Chain of KRAS G12C (P01116-2 other isoform, or with tags, fused parts or gaps G12C): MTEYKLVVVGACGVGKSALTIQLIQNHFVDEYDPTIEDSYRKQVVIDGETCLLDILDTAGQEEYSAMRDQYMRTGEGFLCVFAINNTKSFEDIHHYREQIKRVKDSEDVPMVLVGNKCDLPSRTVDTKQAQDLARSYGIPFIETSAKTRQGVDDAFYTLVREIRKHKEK
Chain of KRAS G12C (P62937 whole entry): as the sequence (P62937 whole entry) above
Chain of NRAS Q61K (P01111 whole entry Q61K): as the sequence (P01111 whole entry Q61R) above, with R61K counted along it
Chain of NRAS Q61K (P62937 whole entry): as the sequence (P62937 whole entry) above

SMILES | IC50 [1, 3] | IC50 (KRAS WT) | IC50 (KRAS G13C) | IC50 (KRAS G12C) | IC50 (NRAS Q61R) | IC50 (KRAS G13D) | IC50 (KRAS G12V) | IC50 (NRAS WT) | IC50 (NRAS Q61K) | IC50 (KRAS Q61H) | IC50 (KRAS G12D) | IC50 ([2]; read-out: KRAS G12C FRET IC50) | IC50 ([1]; Homo sapiens, CAPAN-1, 120 h) | IC50 ([1]; K-Ras G12V, 5-day treatment) | IC50 ([2]; KRAS G12C FRET IC50)
CCn1c(-c2cccnc2[C@H](C)OC)c2c3cc(ccc31)-c1csc(n1)C[C@H](NC(=O)[C@H](C(C)C)N1C[C@@H](c3ccccc3)CC1=O)C(=O)N1CCC[C@H](N1)C(=O)OCC(C)(C)C2 (single isomer, unassigned) [Compound A544] | 100 to 1000 nM | 1000 to 10000 nM | 100 to 1000 nM | 100 to 1000 nM | 1000 to 10000 nM | 1000 to 10000 nM | 1000 to 10000 nM | 1000 to 10000 nM | 100 to 1000 nM | 100 to 1000 nM | 1000 to 10000 nM |  |  |  | 
CCn1c(-c2cccnc2[C@H](C)OC)c2c3cc(ccc31)-c1csc(n1)C[C@H](NC(=O)[C@H](C(C)C)N(C)C(=O)[C@H]1CCN(S(C)(=O)=O)C1)C(=O)N1CCC[C@H](N1)C(=O)OCC(C)(C)C2 [Compound A237] |  | 1000 to 10000 nM | 1000 to 10000 nM | 1000 to 10000 nM | 1000 to 10000 nM | > 10000 nM | 1000 to 10000 nM | 1000 to 10000 nM | 1000 to 10000 nM |  | > 10000 nM | 10 to 100 nM | 1000 to 10000 nM |  | 
CCn1c(-c2cccnc2[C@H](C)OC)c2c3cc(ccc31)-c1csc(n1)C[C@H](NC(=O)[C@H](C(C)C)N(C)C(=O)N1CCN(C(C)=O)CC1)C(=O)N1CCC[C@H](N1)C(=O)OCC(C)(C)C2 [Compound A291] | 10 to 100 nM | 10 to 100 nM | 100 to 1000 nM | 10 to 100 nM |  | 100 to 1000 nM | 100 to 1000 nM | 10 to 100 nM |  | 10 to 100 nM | 100 to 1000 nM | < 10 nM |  |  | 
CCn1c(-c2cccnc2[C@H](C)OC)c2c3cc(ccc31)-c1cc(O)cc(c1)C[C@H](NC(=O)[C@H](C(C)C)N(C)C(=O)C1CCC3(CCOC3)O1)C(=O)N1CCC[C@H](N1)C(=O)OCC(C)(C)C2 (stereo partly shown) [Compound A409] | 100 to 1000 nM | 10 to 100 nM | 10 to 100 nM | 10 to 100 nM | 100 to 1000 nM | 10 to 100 nM | 100 to 1000 nM | 10 to 100 nM |  | 10 to 100 nM | 100 to 1000 nM | 100 to 1000 nM |  |  | 
CCn1c(-c2cccnc2[C@H](C)OC)c2c3cc(ccc31)-c1csc(n1)C[C@H](NC(=O)[C@H](C(C)C)N(C)C(=O)N1C[C@@H]3OCCN(C)[C@@H]3C1)C(=O)N1CCC[C@H](N1)C(=O)OCC(C)(C)C2 [Compound A444] | 10 to 100 nM | 100 to 1000 nM | 100 to 1000 nM | 10 to 100 nM | 100 to 1000 nM | 100 to 1000 nM | 100 to 1000 nM | 100 to 1000 nM |  | 10 to 100 nM | 100 to 1000 nM | 10 to 100 nM |  |  | 
CCO[C@@H]1c2nc(cs2)-c2ccc3c(c2)c(c(-c2cc(C4CCN(C5COC5)CC4)cnc2[C@H](C)OC)n3CC)CC(C)(C)COC(=O)[C@@H]2CCCN(N2)C(=O)[C@H]1NC(=O)[C@H]1[C@H](C)[C@@H]1C [Compound A449, (1r,2R,3S)—N-((6^3S,3S,4S,Z)-3-ethoxy-1^1-ethyl-1^2-(2-((S)-1-methoxyethyl)-5-(1-(oxetan-3-yl)piperidin-4-yl)pyridin-3-yl)-10,10-dimethyl-5,7-dioxo-6^1,6^2,6^3,6^4,6^5,6^6-hexahydro-1^1H-8-oxa-2 (4,2)-thiazola-1 (5,3)-indola-6 (1,3)-pyridazinacycloundecaphane-4-yl)-2,3-dimethylcyclopropane-1-carboxamide] |  |  | 100 to 1000 nM | 100 to 1000 nM |  |  | 1000 to 10000 nM |  |  | 100 to 1000 nM | 1000 to 10000 nM | 100 to 1000 nM |  | 100 to 1000 nM | 
CCn1c(-c2cccnc2[C@H](C)OC)c2c3cc(ccc31)-c1csc(n1)[C@@H](OCC1CCN(C)CC1)[C@H](NC(=O)[C@H]1C[C@@H]1C)C(=O)N1CCC[C@H](N1)C(=O)OCC(C)(C)C2 [Compound A451, (1S,2S)—N-((6^3S,3S,4S,Z)-1^1-ethyl-1^2-(2-((S)-1-methoxyethyl)pyridin-3-yl)-10,10-dimethyl-3-((1-methylpiperidin-4-yl)methoxy)-5,7-dioxo-6^1,6^2,6^3,6^4,6^5,6^6-hexahydro-1^1H-8-oxa-2 (4,2)-thiazola-1 (5,3)-indola-6 (1,3)-pyridazinacycloundecaphane-4-yl)-2-methylcyclopropane-1-carboxamide] |  |  | 100 to 1000 nM | 100 to 1000 nM |  |  | 100 to 1000 nM |  |  | 100 to 1000 nM | 1000 to 10000 nM | 100 to 1000 nM |  | 10 to 100 nM | 
CCn1c(-c2cc(N3CCN(C)CC3)cnc2[C@H](C)OC)c2c3cc(ccc31)-c1csc(n1)C[C@H](NC(=O)[C@H](C(C)C)N(C)C(=O)N1CC(OC)C1)C(=O)N1CCC[C@H](N1)C(=O)OCC(C)(C)C2 [Compound A466] |  | 100 to 1000 nM | 100 to 1000 nM | 10 to 100 nM |  | 100 to 1000 nM | 100 to 1000 nM | 10 to 100 nM |  | 10 to 100 nM | 100 to 1000 nM |  |  |  | 10 to 100 nM
CCOC1c2nc(cs2)-c2ccc3c(c2)c(c(-c2cc(C4CC5COCC(C4)N5C4CC4)cnc2C(C)OC)n3CC)CC(C)(C)COC(=O)C2CCCN(N2)C(=O)C1NC(=O)C1C(C)C1C [Compound A483, (1r,2R,3S)—N-((6^3S,3S,4S,Z)-12-(5-((1R,5S,7s)-9-cyclopropyl-3-oxa-9-azabicyclo[3.3.1]nonan-7-yl)-2-((S)-1-methoxyethyl)pyridin-3-yl)-3-ethoxy-1^1-ethyl-10,10-dimethyl-5,7-dioxo-6^1,6^2,6^3,6^4,6^5,6^6-hexahydro-1^1H-8-oxa-2 (4,2)-thiazola-1 (5,3)-indola-6 (1,3)-pyridazinacycloundecaphane-4-yl)-2,3-dimethylcyclopropane-1-carboxamide] |  |  | 100 to 1000 nM | 10 to 100 nM |  |  | 100 to 1000 nM |  |  | 10 to 100 nM | 10 to 100 nM | 100 to 1000 nM |  | 10 to 100 nM | 
CCn1c(-c2cccnc2[C@H](C)OC)c2c3cc(ccc31)-c1csc(n1)C[C@H](NC(=O)[C@H](C(C)C)N(C)C(=O)N1CCC13CCS(=O)(=O)CC3)C(=O)N1CCC[C@H](N1)C(=O)OCC(C)(C)C2 [Compound A530] | 100 to 1000 nM | 100 to 1000 nM | 100 to 1000 nM | 100 to 1000 nM | 100 to 1000 nM | 1000 to 10000 nM | 100 to 1000 nM | 100 to 1000 nM |  | 10 to 100 nM | 1000 to 10000 nM | 100 to 1000 nM |  |  | 
CCn1c(-c2cccnc2[C@H](C)OC)c2c3cc(ccc31)-c1csc(n1)C[C@H](NC(=O)[C@H](C(C)C)N(C)C(=O)N1CC([C@H](C)COC)C1)C(=O)N1CCC[C@H](N1)C(=O)OCC(C)(C)C2 [Compound A533] | 10 to 100 nM | 100 to 1000 nM | 100 to 1000 nM | 10 to 100 nM | 100 to 1000 nM | 100 to 1000 nM | 100 to 1000 nM | 10 to 100 nM |  | 10 to 100 nM | 100 to 1000 nM | 10 to 100 nM |  |  | 
CCn1c(-c2cccnc2[C@H](C)OC)c2c3cc(ccc31)-c1csc(n1)C[C@H](NC(=O)[C@H](C(C)C)N(C)C(=O)N1CC([C@H](C)N(C)C)C1)C(=O)N1CCC[C@H](N1)C(=O)OCC(C)(C)C2 [Compound A538] | 10 to 100 nM | 100 to 1000 nM | 100 to 1000 nM | 10 to 100 nM | 100 to 1000 nM | 100 to 1000 nM | 100 to 1000 nM | 100 to 1000 nM |  | 10 to 100 nM | 100 to 1000 nM | 10 to 100 nM |  |  | 
CCn1c(-c2cccnc2[C@H](C)OC)c2c3cc(ccc31)-c1cc(O)cc(c1)C[C@H](NC(=O)[C@H](C(C)C)N(C)C(=O)[C@@H]1OCC[C@H]1c1ccccc1)C(=O)N1CCC[C@H](N1)C(=O)OCC(C)(C)C2 [Compound A584] | 100 to 1000 nM | 10 to 100 nM | 10 to 100 nM | 10 to 100 nM |  | 10 to 100 nM | 10 to 100 nM | 10 to 100 nM |  | 10 to 100 nM | 10 to 100 nM | 10 to 100 nM |  |  | 
